According to US10772840B2 (Charleston Laboratories, Inc., priority 2016, dated 2020):

Key:
[1] = Dissolution measurement by USP Apparatus 2 (Paddle Apparatus), HPLC analysis; assay type: physicochemical; conditions: in a capsule, 500 ml 0.1 N HCl pH 1.1, N=6
Method: Dissolution studies were conducted to measure the rates of dissolution of active ingredients using a USP Apparatus 2 (Paddle Apparatus) with a dissolution fluid of 500 ml deaerated 0.1 N HCl (i.e., pH 1.1) at 37.0+/−0.5° C. Dissolution samples were analyzed by HPLC.
Dissolution medium of 0.1N HCl was prepared by mixing approximately 85 ml of concentrated (12N) Hydrochloric Acid with 10 L of water. Stock promethazine HCl standard solution was prepared by adding approximately 30 ml of dissolution medium to 25.0 mg of dried Promethazine Hydrochloride USP reference standard in a 50 ml volumetric flash, diluted to volume with dissolution media, and mixed well. […] The resulting solution is diluted to volume with dissolution medium and mixed well.
The dissolution apparatus used is USP Apparatus 2 (Paddle Apparatus) with a speed of 50 rpm at 37.0° C.±0.5° C. Dissolution medium (500 ml) was Helium sparged for at least 10 minutes. N=6 samples were tested. Sample time point of 5, 10, 15, 20, 30, 45, 60, and 90 minutes (final time point at 250 rpm). Filters: QLA 10 μm in-line full flow porous filter or equivalent; chromafil 1.0 μm on-line glass fiber membrane filter or equivalent.
The dissolution apparatus was assembled and the paddle was positioned so that the distance between its lower edge and the lower inner surface of the vessel is within 25 mm±2 mm throughout the test. This step was repeated for each of the six vessels. The speed (50 rpm) and the temperature (37.0° C.±0.5° C.) were set. 500 mL of 0.1N HCl solution were placed into each of the six vessels, previously degassed via helium purge, degassed using degasser or other suitable means. The Dissolution medium was equilibrated to set temperature and the temperature of the dissolution medium was checked with a thermometer or thermocouple before starting the dissolution. Each of the six (6) capsules were accurately weighed and the weight was recorded. The dissolution test was started. Each capsule was dropped with sinker into vessels noting the station assigned to each recorded capsule weight. The shaft was rotated at 50 rpm. Samples were withdrawn by dissolution auttosampler at 5, 10, 15, 20, 30, 45, 60, and 90 minutes into HPLC vials, or were withdraw manually. Filters (QLA 10 μm in-line full flow porous filter or equivalent; chromafil 1.0 μm on-line glass fiber membrane filter or equivalent) were utilized, discarding at least the first 5 mL of the filtrate, and clear filtrate was transfered into HPLC vials. After withdrawing samples at the 60 minute time point, the paddle rotation speed was increased to 250 rpm until the next time point of 90 minutes.
HPLC conditions: Flow rate: 1.0 ml/min; Injection Volume: 10 μL; Column Temperature: 40° C.±2° C.; Wavelengths: 240 nm; Run Time: 7 minutes; Mobile Phase A was 0.2% TFA in Water, which was prepared by mixing well 2.0 ml of trifluoroacetic acid with 1 L of water. Mobile Phase B: 0.2% TFA in Acetonitrile, which was prepared by mixing well 2.0 ml of trifluoroacetic acid to 1 L of acetonitrile; and Gradient used was as follows in Table 8.
If a Water® dissolution autosampler was utilized, then the Empower Dissolution Software was used to calculate the profile. Calculation are performed using a validated excel spreadsheet. When the sample was performed manually, the volume correction was considered for the calculation.

[2] = Impurity profile (related substances) by HPLC, initial and after one month at 40° C. (stability study); assay type: physicochemical; conditions: HPLC percent area
Method: The percentages of related substances were measured using an HPLC.
Stock promethazine HCl selectivity solution was prepared by accurately weighing about 2 mg of EP promethazine for peak identification CRS and transferring into 1 mL of diluent (prepared by mixing 750 mL of mobile phase A and 250 mL of acetonitrile), followed by vortexing to dissolve.
Ten capsules were randomly selected and weighed. The contents of the ten capsules were emptied into a 500 mL volumetric flask. 300 mL of diluent was added and the mixture was sonicated in an ice bath for 40 minutes or until completely disintegrated with intermittent swirling. The temperature was equilibrated to room temperature and more diluent was added to volume.
Promethazine HCl impurity sample solution: stock solution sample was filtered through a 0.45 μm PVDF membrane, syringe filter or a 0.45 μm PTFE w/GMF membrane, syringe filter discarding the first 5 mL and collecting approximately 20 mL into an appropriate glass container. Fill an HPLC vial with the filtrate
The RT of the promethazine in the promethazine HCl selectivity solution is between 44.1 and 53.9.
Mobile Phase B: 0.2% TFA in Acetonitrile, which was prepared by mixing well 2.0 ml of trifluoroacetic acid to 1 L of acetonitrile; and Gradient used was as follows in Table 15.
All known and unknown impurities were calculated via percent area as follow:
[formula] Where: • Ru=Peak area of related substance in the sample solution • Rt=Sum of peak area of promethazine or sumatriptan and all related substances areas corresponding to respective peak in sample solution • RRF=Relative Response Factor for related substances
The formulation was examined for its stability after one month at 40° C.

[3] = after 1 month store at 40° C., 5 min, 50 rpm
[4] = after 1 month store at 40° C., 10 min, 50 rpm
[5] = after 1 month store at 40° C., 15 min, 50 rpm
[6] = after 1 month store at 40° C., 20 min, 50 rpm
[7] = after 1 month store at 40° C., 30 min, 50 rpm
[8] = after 1 month store at 40° C., 45 min, 50 rpm
[9] = after 1 month store at 40° C., 60 min, 50 rpm
[10] = after 1 month store at 40° C., 90 min (250 rpm after 60 min)
[11] = large batch, 90 min (250 rpm after 60 min)

CNS(=O)(=O)Cc1ccc2[nH]cc(CCN(C)C)c2c1 [Sumatriptan, Sumatriptan succinate]
Dissolution (% release), Max. [1, 3]: 77
Dissolution (% release), Mean [1, 3]: 60
Dissolution (% release), Min. [1, 3]: 47
Dissolution (% release), Max. [1, 4]: 89
Dissolution (% release), Mean [1, 4]: 76
Dissolution (% release), Min. [1, 4]: 62
Dissolution (% release), Max. [1, 5]: 91
Dissolution (% release), Mean [1, 5]: 81
Dissolution (% release), Min. [1, 5]: 69
Dissolution (% release), Max. [1, 6]: 94
Dissolution (% release), Mean [1, 6]: 85
Dissolution (% release), Min. [1, 6]: 74
Dissolution (% release), Max. [1, 7]: 95
Dissolution (% release), Mean [1, 7]: 88
Dissolution (% release), Min. [1, 7]: 80
Dissolution (% release), Max. [1, 8]: 97
Dissolution (% release), Mean [1, 8]: 91
Dissolution (% release), Min. [1, 8]: 84
Dissolution (% release), Max. [1, 9]: 98
Dissolution (% release), Mean [1, 9]: 93
Dissolution (% release), Min. [1, 9]: 86
Dissolution (% release), Max. [1, 10]: 100
Dissolution (% release), Mean [1, 10]: 98
Dissolution (% release), Min. [1, 10]: 96
Dissolution (% release), Max. ([1]; large batch, 5 min, 50 rpm): 73
Dissolution (% release), Mean ([1]; large batch, 5 min, 50 rpm): 66
Dissolution (% release), Min. ([1]; large batch, 5 min, 50 rpm): 56
Dissolution (% release), Max. ([1]; large batch, 10 min, 50 rpm): 86
Dissolution (% release), Mean ([1]; large batch, 10 min, 50 rpm): 80
Dissolution (% release), Min. ([1]; large batch, 10 min, 50 rpm): 73
Dissolution (% release), Max. ([1]; large batch, 15 min, 50 rpm): 89
Dissolution (% release), Mean ([1]; large batch, 15 min, 50 rpm): 85
Dissolution (% release), Min. ([1]; large batch, 15 min, 50 rpm): 81
Dissolution (% release), Max. ([1]; large batch, 20 min, 50 rpm): 91
Dissolution (% release), Mean ([1]; large batch, 20 min, 50 rpm): 88
Dissolution (% release), Min. ([1]; large batch, 20 min, 50 rpm): 84
Dissolution (% release), Max. ([1]; large batch, 30 min, 50 rpm): 93
Dissolution (% release), Mean ([1]; large batch, 30 min, 50 rpm): 90
Dissolution (% release), Min. ([1]; large batch, 30 min, 50 rpm): 87
Dissolution (% release), Max. ([1]; large batch, 45 min, 50 rpm): 95
Dissolution (% release), Mean ([1]; large batch, 45 min, 50 rpm): 93
Dissolution (% release), Min. ([1]; large batch, 45 min, 50 rpm): 91
Dissolution (% release), Max. ([1]; large batch, 60 min, 50 rpm): 96
Dissolution (% release), Mean ([1]; large batch, 60 min, 50 rpm): 94
Dissolution (% release), Min. ([1]; large batch, 60 min, 50 rpm): 92
Dissolution (% release), Max. [1, 11]: 98
Dissolution (% release), Mean [1, 11]: 98
Dissolution (% release), Min. [1, 11]: 97
Impurity percentages, all related substances combined ([2]; in a capsule stored at 40° C. for 1 month): None Detected
Impurity percentages, all related substances combined ([2]; in a capsule, initial (before storage)): 0.1%
